Measurements taken from the supplement of paper PMC10883282.

Legend:
Test in all cases: relative viability vs DMSO control (72 h) (fraction); higher = more viable cells
[1] = tested on: RD-ES
Summary of the method: (§1)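 Sarcoma cell lines in 384-well plates, seeded to reach 80–90% confluence, were given compound after 24 h and kept 72 h at 37 °C, 5% CO2, with 0.1% DMSO vehicle and a 5 µM positive control. Relative viability came from ATPLite as percent growth, averaged over up to triplicate wells. On the rescaled values, 1 equals full and 0 equals none.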

[2] = tested on: KHOS-240S
Summary of the method: as §1

[3] = tested on: SW982
Summary of the method: as §1

[4] = tested on: HT1080
Summary of the method: as §1

[5] = tested on: SW1353
Summary of the method: as §1

CN(C)C(=O)c1cc2cnc(Nc3ccc(N4CCNCC4)cn3)nc2n1C1CCCC1 [Ribociclib]
relative viability
Details | [1] | [2] | [3] | [4] | [5]
0.00017 µM | 0.9605 | 1.08 | 1.03 | 1.08 | 1.01
0.00051 µM | 0.9809 | 1.07 | 1.03 | 1.11 | 1
0.00152 µM | 0.959 | 1.08 | 1.04 | 1.08 | 0.974
0.00457 µM | 0.985 | 1.1 | 1.0148 | 1.08 | 0.985
0.01372 µM | 0.926 | 1.06 | 1.05 | 1.05 | 0.992
0.04115 µM | 0.9 | 1.08 | 1.02 | 1.08 | 0.961
0.1235 µM | 0.845 | 1.04 | 0.992 | 1.1 | 0.921
0.3704 µM | 0.773 | 1.05 | 1.02 | 1.09 | 0.918
1.111 µM | 0.735 | 1 | 0.993 | 1.12 | 0.901
3.333 µM | 0.602 | 0.891 | 0.788 | 1.09 | 0.802
10 µM | 0.546 | 0.784 | 0.66 | 0.978 | 0.858

C=CC(=O)N1CCC(CNc2ncnc(N)c2-c2ccc(Oc3ccccc3)cc2)CC1 [Evobrutinib]
relative viability
Details | [1] | [2] | [3] | [4] | [5]
0.00017 µM | 0.985 | 1.09 | 1.04 | 1.11 | 1.07
0.00051 µM | 1 | 1.06 | 1.09 | 1.1 | 1.07
0.00152 µM | 0.99 | 1.08 | 1.11 | 1.1 | 1.09
0.00457 µM | 1 | 1.12 | 1.07 | 1.14 | 1.06
0.01372 µM | 1 | 1.1 | 1.08 | 1.082 | 1.02
0.04115 µM | 1.03 | 1.09 | 1.068 | 1.08 | 1.007
0.1235 µM | 1.01 | 1.08 | 1.086 | 1.091 | 1.048
0.3704 µM | 0.981 | 1.07 | 1.07 | 1.078 | 1.02
1.111 µM | 0.9603 | 1.07 | 1.06 | 1.07 | 0.974
3.333 µM | 0.976 | 1.04 | 1.07 | 1.1 | 0.949
10 µM | 0.946 | 1.03 | 1.12 | 1.08 | 0.853

CNC(=O)c1c(C)oc2cc(Oc3ncnc4cc(OC)c(OC)cc34)ccc12 [Fruquintinib]
relative viability
Details | [1] | [2] | [3] | [4] | [5]
0.00017 µM | 0.93 | 1.06 | 1.03 | 1.08 | 1.051
0.00051 µM | 0.979 | 1.07 | 1.03 | 1.06 | 1.02
0.00152 µM | 0.968 | 1.08 | 1.04 | 1.058 | 1.02
0.00457 µM | 0.952 | 1.07 | 1.02 | 1.04 | 1.01
0.01372 µM | 0.971 | 1.07 | 1.03 | 1.07 | 1.02
0.04115 µM | 0.935 | 1.08 | 1.04 | 1.04 | 1.01
0.1235 µM | 0.968 | 1.03 | 1.048 | 1.03 | 0.997
0.3704 µM | 0.934 | 0.987 | 1.04 | 1.04 | 0.925
1.111 µM | 0.945 | 0.9394 | 1.04 | 1.054 | 0.863
3.333 µM | 0.917 | 0.8 | 0.992 | 1.02 | 0.746
10 µM | 0.928 | 0.755 | 0.925 | 1.01 | 0.763

CN(C)C/C=C/C(=O)Nc1cc2c(Nc3ccc(F)c(Cl)c3)ncnc2cc1O[C@H]1CCOC1 [Afatinib]
relative viability
Details | [1] | [2] | [3] | [4] | [5]
0.00017 µM | 0.992 | 1.06 | 1.017 | 1.1 | 1.03
0.00051 µM | 0.986 | 1.06 | 1.03 | 1.12 | 1.01
0.00152 µM | 1 | 1.07 | 1.03 | 1.1 | 0.965
0.00457 µM | 0.973 | 1.08 | 1.06 | 1.08 | 0.923
0.01372 µM | 1 | 1.06 | 1.05 | 1.07 | 0.822
0.04115 µM | 0.969 | 1.04 | 1.02 | 1.07 | 0.771
0.1235 µM | 0.914 | 1.03 | 0.914 | 1.11 | 0.749
0.3704 µM | 0.829 | 0.991 | 0.659 | 1.11 | 0.653
1.111 µM | 0.647 | 0.715 | 0.286 | 1.02 | 0.485
3.333 µM | 0.381 | 0.402 | 0.183 | 0.767 | 0.3677
10 µM | 0.0144 | 0.0697 | 0.219 | 0.173 | 0.22

CO[C@H]1C[C@@H]2CC[C@@H](C)[C@@](O)(O2)C(=O)C(=O)N2CCCC[C@H]2C(=O)O[C@H]([C@H](C)C[C@@H]2CC[C@@H](OC(=O)C(C)(CO)CO)[C@H](OC)C2)CC(=O)[C@H](C)/C=C(\C)[C@@H](O)[C@@H](OC)C(=O)[C@H](C)C[C@H](C)/C=C/C=C/C=C/1C [Temsirolimus]
relative viability
Details | [1] | [2] | [3] | [4] | [5]
0.00017 µM | 0.908 | 1.01 | 0.921 | 1.02 | 0.892
0.00051 µM | 0.865 | 0.954 | 0.828 | 1.01 | 0.859
0.00152 µM | 0.771 | 0.886 | 0.724 | 1.05 | 0.827
0.00457 µM | 0.745 | 0.833 | 0.667 | 1.01 | 0.781
0.01372 µM | 0.687 | 0.807 | 0.657 | 0.95 | 0.745
0.04115 µM | 0.656 | 0.802 | 0.657 | 0.918 | 0.72
0.1235 µM | 0.625 | 0.763 | 0.626 | 0.936 | 0.68
0.3704 µM | 0.568 | 0.748 | 0.595 | 0.929 | 0.664
1.111 µM | 0.526 | 0.662 | 0.562 | 0.908 | 0.63
3.333 µM | 0.435 | 0.581 | 0.473 | 0.8 | 0.602
10 µM | 0.107 | 0.222 | 0.385 | 0.0491 | 0.149

O=S(=O)(c1cccc2c(O)nccc12)N1CCCNCC1 [Hydroxyfasudil]
relative viability
Details | [1] | [2] | [3] | [4] | [5]
0.00017 µM | 0.996 | 1.1 | 1.02 | 1.1 | 1.06
0.00051 µM | 1.02 | 1.1 | 1.05 | 1.09 | 1.07
0.00152 µM | 1 | 1.1 | 1.05 | 1.13 | 1.05
0.00457 µM | 1.01 | 1.11 | 1.081 | 1.06 | 1.07
0.01372 µM | 1.01 | 1.1 | 1.05 | 1.1 | 1.01
0.04115 µM | 1.011 | 1.1 | 1.06 | 1.099 | 1.01
0.1235 µM | 1.03 | 1.11 | 1.073 | 1.102 | 1.038
0.3704 µM | 1.04 | 1.1 | 1.06 | 1.1 | 1.036
1.111 µM | 1.03 | 1.04 | 1.04 | 1.139 | 0.96
3.333 µM | 1.04 | 0.998 | 1.041 | 1.1 | 0.913
10 µM | 1.06 | 0.906 | 0.92 | 1.1 | 0.775

COc1cc(Nc2ncc3c(n2)-c2ccc(Cl)cc2C(c2c(F)cccc2OC)=NC3)ccc1C(=O)O [Alisertib]
relative viability
Details | [1] | [2] | [3] | [4] | [5]
0.00017 µM | 0.95 | 1.04 | 1.01 | 1.11 | 0.987
0.00051 µM | 0.964 | 1.04 | 1.01 | 1.07 | 0.972
0.00152 µM | 0.952 | 1.03 | 1.03 | 1.08 | 0.969
0.00457 µM | 0.909 | 1.01 | 1.02 | 1.06 | 0.961
0.01372 µM | 0.881 | 0.996 | 1.03 | 1.07 | 0.976
0.04115 µM | 0.747 | 0.884 | 0.968 | 0.994 | 0.921
0.1235 µM | 0.428 | 0.807 | 0.583 | 0.974 | 0.886
0.3704 µM | 0.256 | 0.758 | 0.464 | 0.876 | 0.908
1.111 µM | 0.213 | 0.739 | 0.37 | 0.766 | 0.85
3.333 µM | 0.243 | 0.681 | 0.348 | 0.715 | 0.817
10 µM | 0.236 | 0.622 | 0.361 | 0.668 | 0.685

CC(=O)c1c(C)c2cnc(Nc3ccc(N4CCNCC4)cn3)nc2n(C2CCCC2)c1=O [Palbociclib]
relative viability
Details | [1] | [2] | [3] | [4] | [5]
0.00017 µM | 0.959 | 1.07 | 1.03 | 1.09 | 1.05
0.00051 µM | 0.9884 | 1.07 | 1.08 | 1.1 | 1.06
0.00152 µM | 0.98 | 1.08 | 1.06 | 1.11 | 1.05
0.00457 µM | 0.931 | 1.07 | 1.05 | 1.08 | 1.04
0.01372 µM | 0.917 | 1.07 | 1.01 | 1.13 | 1.01
0.04115 µM | 0.835 | 1.01 | 0.936 | 1.12 | 0.955
0.1235 µM | 0.735 | 0.945 | 0.845 | 1.16 | 0.9442
0.3704 µM | 0.652 | 0.843 | 0.737 | 1.16 | 0.9
1.111 µM | 0.603 | 0.734 | 0.6424 | 1.06 | 0.859
3.333 µM | 0.563 | 0.681 | 0.487 | 0.973 | 0.87
10 µM | 0.18 | 0.607 | 0.222 | 0.44 | 0.425

CNC(=O)c1cccc2cc(Oc3ccnc4cc(OCC5(N)CC5)c(OC)cc34)ccc12 [Lucitanib]
relative viability
Details | [1] | [2] | [3] | [4] | [5]
0.00017 µM | 0.984 | 1.1 | 1.03 | 1.08 | 1.11
0.00051 µM | 1.01 | 1.05 | 1.06 | 1.09 | 1.06
0.00152 µM | 1 | 1.1 | 1.06 | 1.1 | 1.04
0.00457 µM | 1 | 1.06 | 1.049 | 1.07 | 1.067
0.01372 µM | 0.969 | 1.07 | 1.03 | 1.1 | 1.03
0.04115 µM | 0.99 | 1.05 | 1.05 | 1.09 | 0.967
0.1235 µM | 0.981 | 1.02 | 1.03 | 1.095 | 0.938
0.3704 µM | 0.949 | 0.946 | 1.04 | 1.09 | 0.909
1.111 µM | 0.92 | 0.817 | 1.03 | 1.11 | 0.8515
3.333 µM | 0.882 | 0.771 | 0.972 | 1.12 | 0.862
10 µM | 0.798 | 0.632 | 0.608 | 1.14 | 0.874
